# In ChEMBL document CHEMBL1201862, “PubChem BioAssay data set” (2004):
# Calls of active or inactive are those of the source.
# Key:
# [1] = molecular target: DNA dC->dU-editing enzyme APOBEC-3A (Homo sapiens, UniProt P31941); assay: Dose Response confirmation of small molecule APOBEC3A DNA Deaminase Inhibitors via a fluorescence-based single-stranded DNA deaminase assay. [Related pubchem assays (depositor defined):AID493011, AID493024]; format: functional
# [2] = molecular target: DNA dC->dU-editing enzyme APOBEC-3G (Homo sapiens, UniProt Q9HC16); format: functional;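 further: Dose-response counterscreen measuring inhibition of APOBEC3G DNA deaminase activity, run while confirming APOBEC3A inhibitors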
# [3] = molecular target: T1, Carboxy-terminal domain RNA polymerase II polypeptide A small phosphatase 1 (Homo sapiens, UniProt Q9GZU7); assay: inhibitors of CTDSP1, concentration-response testing, biochemical assay, absorbance-based, actives from ultra-high-throughput screening (AID 540297); format: functional
# T1 sequence (Q9GZU7 whole entry): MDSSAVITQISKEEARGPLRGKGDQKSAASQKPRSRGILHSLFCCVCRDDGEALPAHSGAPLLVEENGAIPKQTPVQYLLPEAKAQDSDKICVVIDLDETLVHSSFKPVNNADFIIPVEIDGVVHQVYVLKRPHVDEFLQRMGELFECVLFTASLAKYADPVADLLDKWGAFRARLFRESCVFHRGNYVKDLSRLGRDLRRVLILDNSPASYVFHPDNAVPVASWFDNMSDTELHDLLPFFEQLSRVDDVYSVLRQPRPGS
# [4] = test system: Streptococcus sp. 'group A'; assay: growth inhibition of control SK(-) GAS strain, dose response, counter-screen for streptokinase expression inhibitor project, luminescence, kanamycin, BacTiterGlo, confirmation (AID 1900); format: functional, organism-based
# [5] = molecular target: T2, SUMO-activating enzyme (Homo sapiens, UniProt Q9UBT2); assay: SUMOylation inhibitor hit validation, confirmation, SUMOylation inhibitor project, biochemical, AlphaScreen (AID 2018); format: functional
# [6] = molecular target: T2, SUMO-activating enzyme; assay: inhibitors of in vitro SUMOylation cascade, primary screen, biochemical, HTRF, uHTS (AID 2006); format: protein-complex assay
# [7] = test system: Streptococcus; assay: Group A Streptococcus viability loss, dose response, counter-screen for streptokinase expression inhibitor project, luminescence, BacTiterGlo (AID 1915); format: functional, organism-based;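 further: potency for reduction of bacterial viability or growth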
# [8] = molecular target: T3, Heat shock factor protein 1 (Mus musculus, UniProt P38532); assay: HSF1 potentiators in luciferase reporter cells, confirmation, cell-based, NIH3T3, luminescence, dose retest (AID 435004); format: functional;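 further: stress induced by proteasome inhibitor MG132 added 30 min after compound; luciferase reporter driven by HSF1 response element in NIH3T3 cells; actives raise luminescence as potentiators of the MG132 stress response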
# T3 sequence (P38532 whole entry): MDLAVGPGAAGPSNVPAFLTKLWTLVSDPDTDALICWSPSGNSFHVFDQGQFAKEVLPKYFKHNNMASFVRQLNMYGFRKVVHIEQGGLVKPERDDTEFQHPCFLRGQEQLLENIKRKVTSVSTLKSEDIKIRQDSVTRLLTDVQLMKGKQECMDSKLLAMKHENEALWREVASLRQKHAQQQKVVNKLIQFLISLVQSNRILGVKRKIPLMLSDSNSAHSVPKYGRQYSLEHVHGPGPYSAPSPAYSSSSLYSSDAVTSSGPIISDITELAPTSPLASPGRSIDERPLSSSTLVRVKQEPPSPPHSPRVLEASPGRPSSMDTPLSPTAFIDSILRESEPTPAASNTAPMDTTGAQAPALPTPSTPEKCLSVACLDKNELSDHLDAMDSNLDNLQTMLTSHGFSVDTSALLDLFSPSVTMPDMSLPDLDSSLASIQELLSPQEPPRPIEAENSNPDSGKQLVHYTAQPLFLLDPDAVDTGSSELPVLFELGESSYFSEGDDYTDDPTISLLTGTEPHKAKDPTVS
# [9] = molecular target: T4, Endoribonuclease toxin MazF (Escherichia coli K-12, UniProt P0AE70); assay: MazF toxin RNase activators, dose response, biochemical, fluorescence, single-stranded RNA substrate, uHTS hits (AID 588481); format: functional
# T4 sequence (P0AE70 whole entry): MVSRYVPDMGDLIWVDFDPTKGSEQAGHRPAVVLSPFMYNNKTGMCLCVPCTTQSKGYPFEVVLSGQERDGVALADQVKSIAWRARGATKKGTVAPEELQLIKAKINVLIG
# [10] = test system: INS1; assay: beta cell apoptosis inhibitors, cytokine rescue, dose response, luminescence, retest (AID 449756); format: functional, cell-based; conditions: Rattus norvegicus;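 further: cell death triggered by IL-1 beta plus TNF-alpha plus IFN-gamma mixture; protective hits raise ATP signal compared with cytokine alone wells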
# [11] = molecular target: T4, Endoribonuclease toxin MazF; assay: fluorescent RNA oligo signal without MazF, dose response, counter-screen for MazEF activator project, biochemical, fluorescence, single-stranded RNase substrate (AID 588502); format: functional
# [12] = molecular target: T3, Heat shock factor protein 1; assay: inhibition of MG132-induced HSE-luciferase signal, confirmation, cell-based, NIH3T3, luminescence, dose retest (AID 2382); format: functional;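 further: NIH3T3 fibroblasts with HSF1-driven luciferase reporter stressed by proteasome inhibitor MG132; luminescence from HSF1-driven luciferase expression after 8 hours of MG132 stress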
# [13] = molecular target: Tumor necrosis factor (Homo sapiens, UniProt P01375); assay: TNFa-triggered NF-kB activation inhibitors, SAR follow-up, cell-based, revised (AID 2337); format: functional
# [14] = molecular target: T5, Nucleotide-binding oligomerization domain-containing protein 1 (Homo sapiens, UniProt Q9Y239); assay: NOD1 signaling inhibitors, SAR follow-up, revised (AID 2333); format: functional
# T5 sequence (Q9Y239 whole entry): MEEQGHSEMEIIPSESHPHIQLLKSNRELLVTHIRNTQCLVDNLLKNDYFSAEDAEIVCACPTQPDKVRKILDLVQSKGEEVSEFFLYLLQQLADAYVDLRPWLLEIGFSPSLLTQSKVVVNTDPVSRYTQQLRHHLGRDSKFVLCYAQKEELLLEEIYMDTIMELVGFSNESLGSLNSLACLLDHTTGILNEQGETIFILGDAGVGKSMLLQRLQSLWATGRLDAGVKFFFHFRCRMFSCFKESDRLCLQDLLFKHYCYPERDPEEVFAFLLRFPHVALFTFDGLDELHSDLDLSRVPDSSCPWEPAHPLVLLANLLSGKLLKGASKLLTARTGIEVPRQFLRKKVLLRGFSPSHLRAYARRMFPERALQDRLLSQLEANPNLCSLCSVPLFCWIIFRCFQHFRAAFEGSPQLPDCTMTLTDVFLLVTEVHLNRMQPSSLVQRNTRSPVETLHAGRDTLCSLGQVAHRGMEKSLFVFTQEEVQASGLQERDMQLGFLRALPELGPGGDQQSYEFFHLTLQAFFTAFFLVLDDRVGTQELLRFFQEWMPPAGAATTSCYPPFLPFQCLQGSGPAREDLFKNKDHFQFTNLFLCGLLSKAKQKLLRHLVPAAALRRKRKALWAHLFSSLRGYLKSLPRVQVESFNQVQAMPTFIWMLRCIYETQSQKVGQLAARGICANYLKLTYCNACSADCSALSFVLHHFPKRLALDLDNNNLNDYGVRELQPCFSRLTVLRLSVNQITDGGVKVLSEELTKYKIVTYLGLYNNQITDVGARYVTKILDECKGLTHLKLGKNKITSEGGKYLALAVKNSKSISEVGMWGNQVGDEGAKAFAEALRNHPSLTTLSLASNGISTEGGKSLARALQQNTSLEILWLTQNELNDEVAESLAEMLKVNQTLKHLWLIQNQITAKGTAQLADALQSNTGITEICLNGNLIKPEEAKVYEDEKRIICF
# [15] = molecular target: T6, Microphthalmia-associated transcription factor (Homo sapiens, UniProt O75030); assay: TRPM1 promoter luciferase signal decrease, dose response, MITF inhibitor project, cell-based, SK-MEL-5, cherry-picked, set 3 (AID 493073); format: functional
# T6 sequence (O75030 whole entry): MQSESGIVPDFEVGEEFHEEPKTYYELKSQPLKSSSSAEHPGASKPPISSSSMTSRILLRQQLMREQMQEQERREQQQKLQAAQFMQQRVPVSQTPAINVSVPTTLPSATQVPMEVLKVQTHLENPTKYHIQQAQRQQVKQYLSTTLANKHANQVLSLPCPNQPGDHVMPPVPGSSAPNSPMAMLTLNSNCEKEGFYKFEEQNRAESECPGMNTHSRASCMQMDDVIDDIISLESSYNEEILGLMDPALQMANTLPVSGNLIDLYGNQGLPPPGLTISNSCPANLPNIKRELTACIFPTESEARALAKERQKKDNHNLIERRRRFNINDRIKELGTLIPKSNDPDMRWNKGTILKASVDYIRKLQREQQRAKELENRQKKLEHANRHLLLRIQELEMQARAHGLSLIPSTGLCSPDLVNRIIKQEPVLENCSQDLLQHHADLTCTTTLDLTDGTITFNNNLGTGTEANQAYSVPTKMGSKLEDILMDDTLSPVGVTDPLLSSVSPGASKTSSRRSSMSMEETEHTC
# [16] = test system: HEK293; assay: cells; conditions: Homo sapiens
# [17] = molecular target: Dual specificity tyrosine-phosphorylation-regulated kinase 1A (Rattus norvegicus, UniProt Q63470); format: biochemical, Homo sapiens
# [18] = test system: HEK293; assay: inhibitors of LMP1-driven NF-kB reporter, dose response, cell-based, HEK293, luciferase, cherry-pick (AID 588343); format: functional; conditions: Homo sapiens
# [19] = molecular target: Large T antigen (Simian virus 40, UniProt P03070); format: functional, Betapolyomavirus macacae;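 further: Confirmatory-stage PubChem screen for compounds that inhibit SV40 T antigen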
# [20] = molecular target: Glucose-6-phosphate 1-dehydrogenase (Homo sapiens, UniProt P11413); assay: human G6PD enzyme inhibitors, dose response, selectivity assay for P. falciparum G6PD inhibitor project, biochemical, fluorescence (AID 504792); format: functional
# [21] = molecular target: Voltage-gated inwardly rectifying potassium channel KCNH2 (Homo sapiens, UniProt Q12809); conditions: Potency;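 further: confirmatory quantitative high-throughput screen measuring inhibition of hERG channel activity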
# Voltage-gated inwardly rectifying potassium channel KCNH2, sequence (Q12809 whole entry): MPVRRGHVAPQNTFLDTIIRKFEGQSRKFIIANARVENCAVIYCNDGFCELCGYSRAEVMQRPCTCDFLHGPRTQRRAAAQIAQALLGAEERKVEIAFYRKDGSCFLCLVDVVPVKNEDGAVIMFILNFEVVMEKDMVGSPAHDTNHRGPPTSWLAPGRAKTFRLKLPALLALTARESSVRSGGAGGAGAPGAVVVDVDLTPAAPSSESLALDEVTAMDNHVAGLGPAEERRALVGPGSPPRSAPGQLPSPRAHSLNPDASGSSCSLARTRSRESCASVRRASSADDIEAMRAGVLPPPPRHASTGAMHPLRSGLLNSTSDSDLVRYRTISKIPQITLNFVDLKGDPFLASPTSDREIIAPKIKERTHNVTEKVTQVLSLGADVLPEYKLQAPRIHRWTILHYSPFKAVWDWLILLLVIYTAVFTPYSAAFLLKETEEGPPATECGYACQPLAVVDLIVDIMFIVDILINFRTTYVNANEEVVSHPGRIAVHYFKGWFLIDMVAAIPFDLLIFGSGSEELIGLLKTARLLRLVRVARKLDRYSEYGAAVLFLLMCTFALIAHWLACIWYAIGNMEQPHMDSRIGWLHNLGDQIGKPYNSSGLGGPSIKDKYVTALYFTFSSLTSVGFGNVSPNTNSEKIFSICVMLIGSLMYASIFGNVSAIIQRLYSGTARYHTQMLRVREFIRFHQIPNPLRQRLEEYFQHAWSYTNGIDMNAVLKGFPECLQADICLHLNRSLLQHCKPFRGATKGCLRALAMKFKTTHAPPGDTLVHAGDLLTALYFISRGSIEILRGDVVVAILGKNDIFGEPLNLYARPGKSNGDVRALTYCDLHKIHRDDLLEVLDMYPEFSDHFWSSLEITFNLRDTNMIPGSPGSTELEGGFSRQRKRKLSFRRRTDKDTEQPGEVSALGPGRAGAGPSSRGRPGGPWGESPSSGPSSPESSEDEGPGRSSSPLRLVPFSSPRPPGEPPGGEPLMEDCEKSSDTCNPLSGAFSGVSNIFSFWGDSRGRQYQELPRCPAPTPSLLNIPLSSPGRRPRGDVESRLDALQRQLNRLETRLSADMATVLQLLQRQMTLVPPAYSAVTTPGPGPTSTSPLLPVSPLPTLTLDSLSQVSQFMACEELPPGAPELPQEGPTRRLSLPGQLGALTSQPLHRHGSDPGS
# T2 sequence (Q9UBE0 whole entry): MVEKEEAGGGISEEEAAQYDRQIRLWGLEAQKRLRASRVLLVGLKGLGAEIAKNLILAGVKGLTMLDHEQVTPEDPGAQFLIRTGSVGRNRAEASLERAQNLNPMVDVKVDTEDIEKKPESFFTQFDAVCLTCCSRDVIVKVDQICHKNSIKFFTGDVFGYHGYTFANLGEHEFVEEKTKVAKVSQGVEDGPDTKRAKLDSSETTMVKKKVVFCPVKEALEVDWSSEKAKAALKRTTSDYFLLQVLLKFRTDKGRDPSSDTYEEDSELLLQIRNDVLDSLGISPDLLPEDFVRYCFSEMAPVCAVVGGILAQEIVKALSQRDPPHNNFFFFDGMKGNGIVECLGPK
# T2 sequence (Q9UBT2 whole entry): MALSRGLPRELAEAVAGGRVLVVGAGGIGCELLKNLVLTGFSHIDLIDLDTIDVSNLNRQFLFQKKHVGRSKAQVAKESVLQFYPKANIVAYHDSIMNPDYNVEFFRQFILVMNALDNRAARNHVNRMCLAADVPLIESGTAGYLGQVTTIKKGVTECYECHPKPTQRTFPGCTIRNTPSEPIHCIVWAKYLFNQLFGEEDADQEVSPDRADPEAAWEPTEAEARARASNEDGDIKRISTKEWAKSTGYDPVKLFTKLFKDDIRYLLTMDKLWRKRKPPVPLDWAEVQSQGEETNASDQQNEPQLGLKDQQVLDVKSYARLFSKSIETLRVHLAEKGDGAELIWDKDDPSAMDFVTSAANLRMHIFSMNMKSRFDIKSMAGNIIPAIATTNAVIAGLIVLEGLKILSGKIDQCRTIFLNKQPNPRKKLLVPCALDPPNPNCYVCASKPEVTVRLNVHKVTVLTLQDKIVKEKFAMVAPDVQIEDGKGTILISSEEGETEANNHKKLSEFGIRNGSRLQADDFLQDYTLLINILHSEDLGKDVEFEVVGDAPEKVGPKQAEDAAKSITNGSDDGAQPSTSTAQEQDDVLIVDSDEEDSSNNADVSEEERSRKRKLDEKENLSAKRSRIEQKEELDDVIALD
# DNA dC->dU-editing enzyme APOBEC-3G, sequence (Q9HC16 whole entry, the tested form may be a part): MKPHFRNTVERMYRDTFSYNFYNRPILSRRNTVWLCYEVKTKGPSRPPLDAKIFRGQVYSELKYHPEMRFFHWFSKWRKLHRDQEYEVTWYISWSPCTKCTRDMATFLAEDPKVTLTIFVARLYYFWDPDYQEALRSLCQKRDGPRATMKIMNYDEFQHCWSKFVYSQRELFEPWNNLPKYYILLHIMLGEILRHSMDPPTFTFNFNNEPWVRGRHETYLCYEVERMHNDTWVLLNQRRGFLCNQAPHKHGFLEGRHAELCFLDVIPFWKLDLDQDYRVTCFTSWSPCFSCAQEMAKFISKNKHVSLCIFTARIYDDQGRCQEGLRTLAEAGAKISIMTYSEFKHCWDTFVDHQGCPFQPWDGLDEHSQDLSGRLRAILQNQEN
# Tumor necrosis factor, sequence (P01375 whole entry, the tested form may be a part): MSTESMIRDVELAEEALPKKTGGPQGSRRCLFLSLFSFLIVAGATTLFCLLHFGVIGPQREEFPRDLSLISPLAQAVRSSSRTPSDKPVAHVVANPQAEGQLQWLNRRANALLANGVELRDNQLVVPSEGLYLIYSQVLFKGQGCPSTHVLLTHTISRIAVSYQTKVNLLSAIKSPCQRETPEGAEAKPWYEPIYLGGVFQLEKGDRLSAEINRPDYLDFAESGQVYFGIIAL
# Large T antigen, sequence (P03070 whole entry): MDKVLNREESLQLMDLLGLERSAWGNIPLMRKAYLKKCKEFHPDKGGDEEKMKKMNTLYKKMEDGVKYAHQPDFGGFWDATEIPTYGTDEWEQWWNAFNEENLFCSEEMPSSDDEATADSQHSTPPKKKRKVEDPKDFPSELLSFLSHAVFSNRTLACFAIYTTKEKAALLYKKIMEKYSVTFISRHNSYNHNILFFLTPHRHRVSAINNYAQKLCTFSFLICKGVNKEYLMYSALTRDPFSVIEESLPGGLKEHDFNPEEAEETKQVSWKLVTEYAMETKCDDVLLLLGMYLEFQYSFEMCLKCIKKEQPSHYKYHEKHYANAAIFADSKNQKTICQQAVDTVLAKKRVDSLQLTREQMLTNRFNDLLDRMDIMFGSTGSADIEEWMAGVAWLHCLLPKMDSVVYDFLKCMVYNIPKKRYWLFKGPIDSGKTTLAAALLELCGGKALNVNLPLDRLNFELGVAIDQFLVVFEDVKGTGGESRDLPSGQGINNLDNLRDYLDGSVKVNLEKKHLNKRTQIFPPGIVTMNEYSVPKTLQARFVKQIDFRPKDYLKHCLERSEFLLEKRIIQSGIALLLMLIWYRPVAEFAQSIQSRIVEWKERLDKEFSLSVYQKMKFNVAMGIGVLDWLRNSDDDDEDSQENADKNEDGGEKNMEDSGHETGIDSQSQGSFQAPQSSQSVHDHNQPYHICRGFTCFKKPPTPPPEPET
# Glucose-6-phosphate 1-dehydrogenase, sequence (P11413 whole entry): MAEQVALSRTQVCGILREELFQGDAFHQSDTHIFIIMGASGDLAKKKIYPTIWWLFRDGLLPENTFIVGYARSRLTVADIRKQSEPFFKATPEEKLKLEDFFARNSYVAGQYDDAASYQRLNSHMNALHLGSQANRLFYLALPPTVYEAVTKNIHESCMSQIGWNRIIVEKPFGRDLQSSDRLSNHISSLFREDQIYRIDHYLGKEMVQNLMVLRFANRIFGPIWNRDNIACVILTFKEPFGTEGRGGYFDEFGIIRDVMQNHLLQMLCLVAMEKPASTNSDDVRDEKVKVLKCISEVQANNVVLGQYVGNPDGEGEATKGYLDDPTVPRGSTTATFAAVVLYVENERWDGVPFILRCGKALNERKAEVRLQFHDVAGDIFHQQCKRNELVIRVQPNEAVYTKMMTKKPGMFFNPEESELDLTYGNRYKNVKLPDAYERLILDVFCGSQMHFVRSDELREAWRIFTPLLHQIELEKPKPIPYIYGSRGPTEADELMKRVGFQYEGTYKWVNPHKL
# DNA dC->dU-editing enzyme APOBEC-3A, sequence (P31941 whole entry): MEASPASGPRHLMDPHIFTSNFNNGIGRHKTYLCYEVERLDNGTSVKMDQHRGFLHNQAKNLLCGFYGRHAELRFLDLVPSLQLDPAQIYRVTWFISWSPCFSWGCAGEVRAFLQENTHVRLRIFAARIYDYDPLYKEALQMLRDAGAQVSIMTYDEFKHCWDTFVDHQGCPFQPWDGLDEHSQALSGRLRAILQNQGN
compound,measurement,setting,value
O=C(N=C1NCCS1)C1CCN(S(=O)(=O)c2cc([N+](=O)[O-])ccc2Cl)CC1,IC50,[1],22 µM (active)
same,IC50,[2],52.5 µM (active)
same,IC50,[3],3.39 µM (active)
O=C1C([N-]S(=O)(=O)c2cccs2)=C([n+]2cccc(Cc3ccccc3)c2)C(=O)c2ccccc21,EC50,[4],1.53 µM (active)
same,IC50,[5],9.51 µM (active)
same,IC50,[6],12.9 µM (active)
same,EC50,[7],1.6 µM (active)
same,EC50,[8],> 260 µM (inactive)
same,EC50,[9],> 99 µM (inactive)
same,AC50,[10],2.69 µM (active)
same,EC50,[11],36.5 µM (inactive)
COCCn1c(C)cc(C(=O)COC(=O)c2ccccc2Br)c1C,EC50,[12],< 0.16 µM (active)
same,IC50,[13],< 0.0391 µM (active)
same,IC50,[14],11.3 µM (active)
same,AC50,[15],1.14 µM (active)
same,IC50,[16],> 20 µM (inactive)
COC(=O)c1oc2ccc(OC)cc2c1N,AC50,[17],1.56 µM (active)
NC1=NC(=O)/C(=C\c2ccc(O)c([N+](=O)[O-])c2)S1,AC50,[17],1.23 µM (active)
NC(=S)NN=Cc1nccc2c(N)cccc12,AC50,[18],1.55 µM (active)
COc1ccc(NC2CCCN(Cc3cccc4cnccc34)C2)cc1OC (configuration not stated),IC50,[19],42.5 µM (active)
same,IC50,[20],> 80 µM (inactive)
O=C(O)C1=CCCN(CCON=C(c2ccccc2)c2ccccc2)C1,AC50,[21],35.5 µM (inconclusive)
